Values of other authors, collected in patent publication US20240082222A1, “4-CHLORO-N-[2-[(4-CHLOROPHENYL)METHYL]-3-OXO-1,2,4-THIADIAZOL-5-YL]BENZAMIDE FOR USE IN MEDICINE” (Betagenon AB, priority 2021, published 2024).

What was measured:
[1] = 1000 mg/day in suspension, day 28, patients with type-2 diabetes; cited from earlier work
[2] = mice, lumbar disc puncture and postoperative pain models; cited from earlier work

Compound | mean Cmax [1] | treatment of pain (mechanical hypersensitivity) [2]
O=C(Nc1nc(=O)n(Cc2ccc(Cl)cc2)s1)c1ccc(Cl)cc1 [compound of formula I, 4-chloro-N-[2-[(4-chlorophenyl)methyl]-3-oxo-1,2,4-thiadiazol-5-yl]benzamide] | 55 µg/mL | effective at treating pain
CN(C)C(=N)N=C(N)N [metformin, reference compound] | – | effective at treating pain
